This assay in a line: Antagonist activity at CRTH2 receptor in human whole blood assessed as inhibition of PGD2-induced eosinophil shape change after 10 mins by fluorescence assay.

SMILES strings stand for the structures.

Experimental findings from BindingDB's records for doi:10.1016/j.bmcl.2014.08.028 (Rhône-Poulenc Rorer, 2014) are described below.

Broadly, the IC50 is the midpoint of a concentration-inhibition curve.

With `Cc1ccc2c(CC(=O)O)cn(-c3ccc(F)cc3Cc3c(C)cnn3C)c2n1`, the IC50 was 6 nM.

As to `Cc1ccc(-n2cc(CC(=O)O)c3ccc(C)nc32)c(Cn2c(C)nnc2C)c1`, the IC50 turned out to be 1 nM.

Regarding `Cc1ccc2c(CC(=O)O)cn(-c3ccc(Cl)cc3Cn3c(C)nnc3C3CC3)c2n1`, the IC50 was 4 nM.

Take `Cc1nnc(C2CC2)n1Cc1cc(C(F)(F)F)ccc1-c1cn(CC(=O)O)c2ccc(F)cc12`: the IC50 was 2 nM.

With `Cc1nnc(C2CC2)n1Cc1cc(C(F)(F)F)ccc1-n1cc(CC(=O)O)c2ccc(F)cc21`, the 50% inhibitory concentration (IC50) turned out to be 7 nM.

For the compound `Cc1ccc2c(CC(=O)O)cn(-c3ccc(Cl)cc3Cn3c(C)nnc3Cc3ccccc3)c2n1`, the IC50 came out at 2 nM.

As for `Cc1ccc2c(CC(=O)O)cn(-c3ccc(Cl)cc3Cn3c(C)nnc3CCc3ccccc3)c2n1`, the IC50 stood at 5 nM.

On to `Cc1noc(C2CC2)c1Cc1cc(F)ccc1-c1cn(CC(=O)O)c2ccc(C(F)(F)F)cc12`, for which the IC50 amounted to 16 nM.

On to `Cc1ccn2c(CC(=O)O)cc(-c3ccc(C(F)(F)F)cc3Cc3c(C)noc3C3CC3)c2n1`, for which the IC50 came out at 26 nM.

Take `Cc1noc(C2CC2)c1Cc1cc(C(F)(F)F)ccc1-c1cn(CC(=O)O)c2ccc(C(F)(F)F)nc12`: the IC50 is 54 nM.

Turning to `Cc1ccc2c(CC(=O)O)cn(-c3ccc(F)cc3Cc3c(C)noc3C3CC3)c2n1`, the IC50 was determined as 1 nM.

Regarding `Cc1ccc2c(CC(=O)O)cn(-c3ccc(C(F)(F)F)cc3Cc3c(C)noc3C3CC3)c2n1`, the IC50 came to 5 nM.

On to `Cc1ccc2c(CC(=O)O)cn(-c3ccc(C(F)(F)F)cc3Cc3c(C4CC4)noc3C3CC3)c2n1`, for which the IC50 stood at 60 nM.

As to `Cc1ccc2c(CC(=O)O)cn(-c3ccc(Cl)cc3Cc3c(C4CC4)noc3C3CC3)c2n1`, the IC50 worked out at 10 nM.
